According to ChEMBL document CHEMBL1828496 (Eur J Med Chem, 2011):

What was measured:
[1] = Hydrolytic stability of the compound in dimethyl sulfoxide after 1 to 24 hrs by NMR spectroscopic analysis; assay type: physicochemical
[2] = Hydrolytic stability of the compound in acetonitrile after 1 to 24 hrs by NMR spectroscopic analysis; assay type: physicochemical
[3] = species: Homo sapiens; assay: Selectivity ratio of IC50 for human recombinant MAO-A to IC50 for human recombinant MAO-B
[4] = molecular target: T1, Amine oxidase [flavin-containing] A (Homo sapiens, UniProt P21397); assay: Inhibition of human recombinant MAO-A expressed in baculovirus infected BTI-TN-5B1-4 cells assessed as production of hydrogen peroxide from p-tyramine after 15 mins by microplate fluorescence assay
T1 sequence (P21397 whole entry): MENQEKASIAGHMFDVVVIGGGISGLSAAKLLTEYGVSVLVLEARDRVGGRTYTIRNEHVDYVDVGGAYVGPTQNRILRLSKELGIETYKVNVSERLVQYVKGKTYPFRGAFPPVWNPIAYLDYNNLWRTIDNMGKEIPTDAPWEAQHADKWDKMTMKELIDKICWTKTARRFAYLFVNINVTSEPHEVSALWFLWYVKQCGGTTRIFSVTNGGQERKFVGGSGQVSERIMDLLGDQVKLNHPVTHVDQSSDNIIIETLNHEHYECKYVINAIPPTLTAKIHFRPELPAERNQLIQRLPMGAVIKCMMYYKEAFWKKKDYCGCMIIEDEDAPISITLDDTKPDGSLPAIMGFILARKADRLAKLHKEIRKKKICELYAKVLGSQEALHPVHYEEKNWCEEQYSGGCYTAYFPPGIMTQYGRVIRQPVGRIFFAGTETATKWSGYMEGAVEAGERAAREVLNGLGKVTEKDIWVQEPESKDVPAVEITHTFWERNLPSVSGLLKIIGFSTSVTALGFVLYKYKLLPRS

[5] = molecular target: T2, Amine oxidase [flavin-containing] B (Homo sapiens, UniProt P27338); assay: biochemical; assay type: cell-based, BTI-TN-5B1-4
T2 sequence (P27338 whole entry): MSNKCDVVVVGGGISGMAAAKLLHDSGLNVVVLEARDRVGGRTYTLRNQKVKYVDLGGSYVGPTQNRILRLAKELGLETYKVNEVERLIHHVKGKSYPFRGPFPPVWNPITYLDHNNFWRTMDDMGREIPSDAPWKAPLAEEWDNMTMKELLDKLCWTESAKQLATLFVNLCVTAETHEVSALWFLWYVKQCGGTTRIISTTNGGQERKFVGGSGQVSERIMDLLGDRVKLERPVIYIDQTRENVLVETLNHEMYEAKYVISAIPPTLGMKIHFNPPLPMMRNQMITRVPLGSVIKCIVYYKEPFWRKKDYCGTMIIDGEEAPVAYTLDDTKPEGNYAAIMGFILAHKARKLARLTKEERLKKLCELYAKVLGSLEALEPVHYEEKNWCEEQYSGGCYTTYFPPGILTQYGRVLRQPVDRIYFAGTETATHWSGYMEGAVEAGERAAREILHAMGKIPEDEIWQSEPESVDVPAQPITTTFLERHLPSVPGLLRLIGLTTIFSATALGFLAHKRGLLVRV
Description: Inhibition of human recombinant MAO-B expressed in baculovirus infected BTI-TN-5B1-4 cells assessed as production of hydrogen peroxide from p-tyramine after 15 mins by microplate fluorescence assay

[6] = Hydrolytic stability of the compound in phosphate buffer at pH 7.4 after 1 to 24 hrs by NMR spectroscopic analysis; assay type: physicochemical
[7] = Hydrolytic stability of the compound in water after 1 to 24 hrs by NMR spectroscopic analysis; assay type: physicochemical
[8] = molecular target: T1, Amine oxidase [flavin-containing] A; assay: Inhibition of human recombinant MAO-A expressed in baculovirus infected BTI-TN-5B1-4 cells assessed as production of hydrogen peroxide from p-tyramine at 100 uM after 15 mins by microplate fluorescence assay; settings: human, bti-tn-5b1-4, 0.25 h, 100 µM
[9] = molecular target: T2, Amine oxidase [flavin-containing] B; assay: Inhibition of human recombinant MAO-B expressed in baculovirus infected BTI-TN-5B1-4 cells assessed as production of hydrogen peroxide from p-tyramine at 100 uM after 15 mins by microplate fluorescence assay; settings: human, bti-tn-5b1-4, 0.25 h, 100 µM
[10] = molecular target: T2, Amine oxidase [flavin-containing] B; assay: Inhibition of human recombinant MAO-B expressed in baculovirus infected BTI-TN-5B1-4 cells assessed as production of hydrogen peroxide from p-tyramine at 1 mM after 15 mins by microplate fluorescence assay; settings: bti-tn-5b1-4, 0.25 h, 1000 µM

Compound	Stability [1]	Stability [2]	Ratio IC50 [3]	IC50 [4] [µM]	IC50 [5] [µM]	Stability [6]	Stability [7]	inhibition (INH) [8]	inhibition (INH) [9]	inhibition (INH) [10]
CCOC(=O)c1cc2ccc(OC3CCCCCC3)cc2oc1=O	Stable	Stable	2160	46.4	0.0215	Stable	Stable			
O=C(NNc1ccccc1)c1cc2ccccc2oc1=O	Stable	Stable	9.16	41.4	4.52	Stable	Stable			
CCOC(=O)c1cc2cc(I)cc(I)c2oc1=O	Stable	Stable				Stable	Stable	Not Active	Not Active	
O=C(NCCN1CCOCC1)c1ccc(Cl)cc1 [MOCLOBEMIDE]										Not Active
